Data on three molecules can be found in PMC8922281, “Synthesis and In Vitro Biological Evaluation of Quinolinyl Pyrimidines Targeting Type II NADH-Dehydrogenase (NDH-2)” (ACS Infectious Diseases, 2022).

One series concerns P. falciparum K1. In words: Plasmodium falciparum K1 growth (Malstat). The format is cell-based. The following applies: reference compound, 72 h. The protocol:
acceptor at a range of concentrations.
2.1.3. IC50 determination
Compounds were pre-incubated
IC50 is calculated. […] The […]
of PES (phenazine ethosulfate, 0.1 mg/ml) and NBT (Nitro Blue Tetrazolium Grade III, 2 mg/ml) in a new plate. The absorbance change was measured at 655nm. The results were shown as % reduction in parasitemia, compared to control wells with no treatment.
3. Trypanosoma brucei sample has 7*104 parasites/ml in the suspension. Cultured for 3 days, the growth of the cells was assessed fluorimetrically with the addition of resazurin in a microtiter plate. The fluorescence intensity was measured after 24h at 37 °C with the excitation wavelength at 550nm and the emission wavelength at 590nm. The results were presented as % reduction in parasite growth, compared to reference wells with no treatment, followed by IC50 calculation. Suramine was used as the reference compound […]
A compound with IC50 higher than 5 µM is classified as the […]
subsequently evaluated in a secondary assay, with broader concentration range, additional references, and other species.
IC50 values are shown in Table S1, followed by semi-quantitative activity scores, and indications for specificity. […]

Series [1] relates to Trypanosoma brucei brucei Squib 427. The series is described as follows: Trypanosoma brucei growth (resazurin). The following applies: reference compound. Type of series: cell-based. The protocol:
page 46: of PES (phenazine ethosulfate, 0.1 mg/ml) and NBT (Nitro Blue Tetrazolium Grade III, 2 mg/ml) in a new plate. The absorbance change was measured at 655nm. The results were shown as % reduction in parasitemia, compared to control wells with no treatment. […] A compound […] secondary screening. 3. Trypanosoma brucei sample has 7*104 parasites/ml in the suspension. Cultured for 3 days, the growth of the cells was assessed fluorimetrically with the addition of resazurin in a microtiter plate. The fluorescence intensity was measured after 24h at 37 °C with the excitation wavelength at 550nm and the emission wavelength at 590nm. The results were presented as % reduction in parasite growth, compared to reference wells with no treatment, followed by IC50 calculation. Suramine was used as the reference compound […] subsequently evaluated in a secondary assay, with broader concentration range, additional references, and other species. IC50 values are shown in Table S1, followed by semi-quantitative activity scores, and indications for specificity. […]
Background: Alamar Blue is a resazurin reagent that responds to reducing activity.

Series [2] addresses T1, MtNDH-2 (Mycobacterium tuberculosis, UniProt P95160). In words: biochemical. Set-up: species or system M. tuberculosis. The conditions noted are these: MtNDH-2 IC50.
Another series concerns the target MsNDH-2 (Mycolicibacterium smegmatis, UniProt A0QYD6). The series is described as follows: Inhibition of MsNDH-2 (NADH oxidation with menadione, absorbance at 340 nm). Type of series: biochemical, M. smegmatis.
In series [3] the test system is E. coli (ATCC 25922, wild-type). The series is described as follows: MIC on ESKAPE pathogens, E. coli wild-type. The format is cell-based. The conditions noted are these: Escherichia coli, ATCC25922, read-out: MIC Ec WT.
The test system of series [4] is E. coli (ΔtolC efflux-defective mutant, isogenic to ATCC 25922). The series is described as follows: microbe, parasite or virus in culture. Type of series: cell-based. The following applies: Escherichia coli, ATCC25922, read-out: MIC Ec ΔtolC.
Series [5] deals with E. coli (D22, lpxC mutant, drug-hypersensitive). The series is described as follows: microbe, parasite or virus in culture. Type of series: cell-based. The following applies: Escherichia coli, read-out: MIC Ec D22.
Series [6] has as its system P. aeruginosa (PAO1, wild-type). In words: MIC on ESKAPE pathogens, P. aeruginosa wild-type. Type of series: cell-based. The conditions noted are these: Pseudomonas aeruginosa, PAO1, read-out: MIC Pa WT.
In series [7] the test system is P. aeruginosa (PAO750 efflux-defective mutant, isogenic to PAO1). The series is described as follows: microbe, parasite or virus in culture. Type of series: cell-based. The conditions noted are these: Pseudomonas aeruginosa, PAO1, read-out: MIC Pa efflux.
The subject of series [8] is A. baumannii (ATCC 19606, wild-type). In words: MIC on ESKAPE pathogens, A. baumannii. The conditions noted are these: Acinetobacter baumannii, ATCC19606; A. baumannii ATCC 19606, wild-type; read-out: MIC Ab WT. Type of series: cell-based.
The test system of series [9] is S. aureus (ATCC 29213, wild-type). The series is described as follows: MIC on ESKAPE pathogens, S. aureus. Type of series: cell-based. The conditions noted are these: Staphylococcus aureus, ATCC29213.
The test system of series [10] is M. tuberculosis strain H37Rv (ATCC 25618). In words: MIC on M. tuberculosis by resazurin reduction microplate assay (REMA). Type of series: cell-based. The conditions noted are these: Mycobacterium tuberculosis, M. tuberculosis H37Rv, read-out: MIC Mtb.
Series [11] in a line: Cytotoxicity on the MRC-5 cell line (resazurin). The conditions noted are these: human, MRC-5SV2 cells, MRC-5SV2, 3 days. The format is cell-based. In outline:
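MRC-5SV2 cells, about 10^4 per well in Earl's MEM with 5% FCSi, were exposed to compounds for 3 days. Viability read fluorimetrically with resazurin (ex 550, em 590 nm) as % reduction versus untreated wells, giving CC50.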

Series [12] concerns the target T1, MtNDH-2. Set-up: method as in PMID 24900541. The conditions noted are these: reported earlier; cited from earlier work.
The test system of series [13] is K. pneumonia (ATCC 13833, wild-type). In words: MIC on ESKAPE pathogens, K. pneumoniae.

In brackets after ≈: the same amount, converted by molar mass. Several values for one entry are separate records, joined by “and”; a condition that tells them apart may be missing. Equal values may be shown once. Read-outs that look alike come from different tables or passages of the source.

Broadly, the IC50 is the concentration that inhibits the measured activity by half.

T1 sequence (P95160 2-463, added parts left off): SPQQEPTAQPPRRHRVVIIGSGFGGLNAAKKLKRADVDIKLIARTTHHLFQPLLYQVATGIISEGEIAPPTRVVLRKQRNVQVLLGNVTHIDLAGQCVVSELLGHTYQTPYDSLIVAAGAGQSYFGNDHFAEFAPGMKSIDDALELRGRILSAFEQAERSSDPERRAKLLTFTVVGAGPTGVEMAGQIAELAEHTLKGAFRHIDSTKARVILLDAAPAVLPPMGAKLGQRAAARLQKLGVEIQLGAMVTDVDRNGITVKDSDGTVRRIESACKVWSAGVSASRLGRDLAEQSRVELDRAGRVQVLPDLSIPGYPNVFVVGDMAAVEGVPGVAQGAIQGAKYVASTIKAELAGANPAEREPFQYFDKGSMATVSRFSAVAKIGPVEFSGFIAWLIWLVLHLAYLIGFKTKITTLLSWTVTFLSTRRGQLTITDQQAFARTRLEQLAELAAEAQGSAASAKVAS
MsNDH-2, sequence (A0QYD6 1-457): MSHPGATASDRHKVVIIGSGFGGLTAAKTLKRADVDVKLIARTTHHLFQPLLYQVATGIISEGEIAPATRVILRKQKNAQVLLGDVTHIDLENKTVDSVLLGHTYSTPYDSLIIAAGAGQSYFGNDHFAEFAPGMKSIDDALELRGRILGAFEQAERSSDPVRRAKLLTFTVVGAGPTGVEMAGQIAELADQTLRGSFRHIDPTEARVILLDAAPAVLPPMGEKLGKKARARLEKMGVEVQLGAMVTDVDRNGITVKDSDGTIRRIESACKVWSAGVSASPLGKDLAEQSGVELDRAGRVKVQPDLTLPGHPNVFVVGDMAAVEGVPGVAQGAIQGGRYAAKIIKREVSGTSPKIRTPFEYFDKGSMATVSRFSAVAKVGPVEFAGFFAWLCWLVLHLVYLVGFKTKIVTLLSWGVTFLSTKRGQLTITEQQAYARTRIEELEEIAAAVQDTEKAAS

`CCN(CC)CCCC(C)Nc1ccnc2cc(Cl)ccc12` (centres unmarked) [Chloroquine]: the IC50 with P. falciparum K1 came to 210 nM.
The molecule `Cc1ccc(C(=O)Nc2ccc(S(=O)(=O)O)c3cc(S(=O)(=O)O)cc(S(=O)(=O)O)c23)cc1NC(=O)c1cccc(NC(=O)Nc2cccc(C(=O)Nc3cc(C(=O)Nc4ccc(S(=O)(=O)O)c5cc(S(=O)(=O)O)cc(S(=O)(=O)O)c45)ccc3C)c2)c1` [Suramine] returned an IC50 in series [1] of 40 nM.
Turning to `Cc1cccc(-c2cc(Nc3ccc4nc(-c5ccc(F)cc5)cc(N)c4c3)nc(N)n2)c1` [Compound 1, N^6-(2-Amino-6-m-tolylpyrimidin-4-yl)-2-(4-fluorophenyl)quinoline-4,6-diamine, reference compound], the IC50 on MtNDH-2 [2] was 26 nM and 22.9 nM; at MsNDH-2 (95% confidence interval in parentheses, 50 nM enzyme, 50 μM menadione, >100: no significant inhibition at 100 μM), 1600 nM; against MsNDH-2 (same IC50 given in μg/mL to assist comparisons with MICs), 1600 nM; at MtNDH-2 [12], 96 nM. For the same molecule, the MIC in series [3] is > 128 µg/mL; in series [4], 8 µg/mL (≈ 18.3 µM); in series [5], 4 µg/mL (≈ 9.16 µM); in series [6], > 128 µg/mL; in series [7], 128 µg/mL (≈ 293 µM); in [8], 64 µg/mL (≈ 147 µM). Also, the MIC in series [9] is 1 µg/mL (≈ 2.29 µM); in series [10] it was 2.6 µg/mL (≈ 5.96 µM). Also, the IC50 at 3 days amounted to 1300 nM in series [11] (resazurin) and 0.6 µg/mL in series [11] (value in parentheses). Further, in series [13], the “MIC Kp WT” value is >128 µg/mL.
